# Results reported in US11759455B2, “Substituted 1H-imidazo[4,5-b]pyridin-2(3H)-ones and their use as GLUN2B receptor modulators” (JANSSEN PHARMACEUTICA NV, priority 2016, dated 2023).
# Molecular target: T1, human GluN1/GluN2B NMDA receptors (Homo sapiens, UniProt Q13224)
# T1 construct: expressed in transfected cells
# Test: Cell-based calcium flux (FLIPR) assay on cloned human NR1/NR2B ion channels expressed in mammalian cells (standard and HTS buffer variants);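 note: stable Tet-On inducible cell line, Ca2+ influx triggered by glutamate at about EC40 plus 10 µM glycine, fluorescent dye read-out over 5 min, normalized to control wells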
# Conditions: HTS assay buffer (1.5 mM MgCl2 dye loading; 150 mM NaCl, 3 mM KCl assay buffer), human GluN1/GluN2B cells, read-out: NR2B IC50 (μM) HTS assay
# T1 sequence (Q13224 27-1484, other chains not shown): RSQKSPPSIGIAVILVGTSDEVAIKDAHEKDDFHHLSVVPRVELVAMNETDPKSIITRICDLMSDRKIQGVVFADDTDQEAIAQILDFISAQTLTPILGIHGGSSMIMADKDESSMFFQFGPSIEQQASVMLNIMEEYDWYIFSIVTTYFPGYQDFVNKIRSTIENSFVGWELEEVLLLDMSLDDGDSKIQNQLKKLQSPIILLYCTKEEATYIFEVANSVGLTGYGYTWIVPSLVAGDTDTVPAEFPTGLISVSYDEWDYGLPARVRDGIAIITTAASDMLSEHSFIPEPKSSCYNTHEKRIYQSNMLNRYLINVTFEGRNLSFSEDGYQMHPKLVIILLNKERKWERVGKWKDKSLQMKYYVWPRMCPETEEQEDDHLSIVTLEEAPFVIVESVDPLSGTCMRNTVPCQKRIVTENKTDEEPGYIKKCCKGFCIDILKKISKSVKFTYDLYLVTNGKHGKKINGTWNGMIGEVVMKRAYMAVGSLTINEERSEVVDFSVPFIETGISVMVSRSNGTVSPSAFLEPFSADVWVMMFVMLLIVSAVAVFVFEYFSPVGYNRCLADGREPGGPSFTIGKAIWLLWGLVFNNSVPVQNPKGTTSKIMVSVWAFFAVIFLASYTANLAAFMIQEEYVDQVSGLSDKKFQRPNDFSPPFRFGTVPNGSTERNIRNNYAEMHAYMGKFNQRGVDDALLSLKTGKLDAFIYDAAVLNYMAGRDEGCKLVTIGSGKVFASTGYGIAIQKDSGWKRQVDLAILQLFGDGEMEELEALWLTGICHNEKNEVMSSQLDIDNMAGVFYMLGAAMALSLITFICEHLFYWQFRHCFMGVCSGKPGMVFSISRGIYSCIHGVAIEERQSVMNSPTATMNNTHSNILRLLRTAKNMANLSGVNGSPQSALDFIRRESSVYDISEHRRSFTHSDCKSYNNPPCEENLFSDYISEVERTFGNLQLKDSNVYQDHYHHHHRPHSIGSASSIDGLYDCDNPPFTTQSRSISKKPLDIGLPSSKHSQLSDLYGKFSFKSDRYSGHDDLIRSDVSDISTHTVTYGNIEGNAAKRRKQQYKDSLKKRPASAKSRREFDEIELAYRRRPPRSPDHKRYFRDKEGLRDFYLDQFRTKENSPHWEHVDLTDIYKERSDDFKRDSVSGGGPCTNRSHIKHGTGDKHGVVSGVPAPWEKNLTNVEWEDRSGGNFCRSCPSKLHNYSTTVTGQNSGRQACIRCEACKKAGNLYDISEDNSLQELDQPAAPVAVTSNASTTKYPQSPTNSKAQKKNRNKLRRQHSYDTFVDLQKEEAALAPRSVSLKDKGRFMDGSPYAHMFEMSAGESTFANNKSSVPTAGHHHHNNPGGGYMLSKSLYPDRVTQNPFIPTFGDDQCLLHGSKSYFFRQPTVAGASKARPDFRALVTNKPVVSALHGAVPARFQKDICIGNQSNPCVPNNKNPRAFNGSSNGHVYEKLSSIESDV
row,IC50 [µM],SMILES
1,2.06,"COCCn1c(=O)[nH]c2ncc(-c3ccc(F)cc3C)cc21 [Example 2, 6-(4-Fluoro-2-methyl-phenyl)-1-(2-methoxyethyl)-3H-imidazo[4,5-b]pyridin-2-one]"
2,2.14,"COc1ccc(-c2cnc3[nH]c(=O)n(CC(=O)N4CCCC4)c3c2)cc1 [Example 35, 6-(4-Methoxyphenyl)-1-(2-oxo-2-pyrrolidin-1-yl-ethyl)-3H-imidazo[4,5-b]pyridin-2-one]"

# Same assay, conditions: standard assay buffer (0.5 mM MgCl2 dye loading; 137 mM NaCl, 4 mM KCl assay buffer), human GluN1/GluN2B cells, read-out: NR2B IC50 (μM) standard assay
row,SMILES,IC50 [µM]
1,"COc1ccc(-c2cnc3[nH]c(=O)n(CC(=O)N4CCOCC4)c3c2)cc1 [Example 1, 6-(4-Methoxyphenyl)-1-(2-morpholino-2-oxo-ethyl)-3H-imidazo[4,5-b]pyridin-2-one]",2.74
2,"Cn1c(=O)n(Cc2ccncn2)c2cc(-c3cccc(F)c3)cnc21 [Example 7, 6-(3-Fluorophenyl)-3-methyl-1-(pyrimidin-4-ylmethyl)imidazo[4,5-b]pyridin-2-one]",6.77
3,"Cc1cc(Cn2c(=O)[nH]c3ncc(-c4ccc(F)cc4)cc32)nn1C [Example 16, 1-[(1,5-Dimethylpyrazol-3-yl)methyl]-6-(4-fluorophenyl)-3H-imidazo[4,5-b]pyridin-2-one]",8.9
4,"O=c1[nH]c2ncc(-c3cccc(C(F)(F)F)c3)cc2n1CCN1CCC1 [Example 17, 1-[2-(Azetidin-1-yl)ethyl]-6-[3-(trifluoromethyl)phenyl]-3H-imidazo[4,5-b]pyridin-2-one]",0.146
5,"Cn1c(=O)n(CCN2CCC2)c2cc(-c3cccc(C(F)(F)F)c3)cnc21 [Example 18, 1-[2-(Azetidin-1-yl)ethyl]-3-methyl-6-[3-(trifluoromethyl)phenyl]imidazo[4,5-b]pyridin-2-one]",0.7
6,"O=c1[nH]c2ncc(-c3cccc(C(F)(F)F)c3)cc2n1Cc1cccc(Cl)c1 [Example 21, 1-[(3-Chlorophenyl)methyl]-6-[3-(trifluoromethyl)phenyl]-3H-imidazo[4,5-b]pyridin-2-one]",1.34
7,"COc1ncccc1Cn1c(=O)[nH]c2ncc(-c3cccc(C(F)(F)F)c3)cc21 [Example 22, 1-[(2-Methoxy-3-pyridyl)methyl]-6-[3-(trifluoromethyl)phenyl]-3H-imidazo[4,5-b]pyridin-2-one]",26.7
8,"O=c1[nH]c2ncc(-c3cccc(C(F)(F)F)c3)cc2n1Cc1ccncn1 [Example 23, 1-(Pyrimidin-4-ylmethyl)-6-[3-(trifluoromethyl)phenyl]-3H-imidazo[4,5-b]pyridin-2-one]",0.22
9,"Cn1c(=O)n(CC(=O)N2CCC2)c2cc(-c3ccc(C(F)(F)F)s3)cnc21 [Example 27, 1-[2-(Azetidin-1-yl)-2-oxo-ethyl]-3-methyl-6-[5-(trifluoromethyl)-2-thienyl]imidazo[4,5-b]pyridin-2-one]",0.031
10,"CN(C)C(=O)Cn1c(=O)n(C)c2ncc(-c3ccc(C(F)(F)F)s3)cc21 [Example 28, N,N-Dimethyl-2-[3-methyl-2-oxo-6-[5-(trifluoromethyl)-2-thienyl]imidazo[4,5-b]pyridin-1-yl]acetamide]",0.034
11,"Cc1ccc(C(F)(F)F)cc1-c1cnc2[nH]c(=O)n(CC(=O)N3CCC3)c2c1 [Example 29, 1-[2-(Azetidin-1-yl)-2-oxo-ethyl]-6-[2-methyl-5-(trifluoromethyl)phenyl]-3H-imidazo[4,5-b]pyridin-2-one]",0.396
12,"O=c1[nH]cccc1Cn1c(=O)[nH]c2ncc(-c3cccc(C(F)(F)F)c3)cc21 [Example 32, 1-[(2-Oxo-1H-pyridin-3-yl)methyl]-6-[3-(trifluoromethyl)phenyl]-3H-imidazo[4,5-b]pyridin-2-one]",8.33
13,"Cn1c(=O)n(CC(=O)N2CC(F)C2)c2cc(-c3cccc(C(F)(F)F)c3)cnc21 [Example 34, 1-[2-(3-Fluoroazetidin-1-yl)-2-oxo-ethyl]-3-methyl-6-[3-(trifluoromethyl)phenyl]imidazo[4,5-b]pyridin-2-one]",0.065

# Other lines, results leading:
row,IC50 [µM],SMILES
1,0.204,"Cn1cc(Cn2c(=O)[nH]c3ncc(-c4ccc(F)cc4)cc32)cn1 [Example 15, 6-(4-Fluorophenyl)-1-[(1-methylpyrazol-4-yl)methyl]-3H-imidazo[4,5-b]pyridin-2-one]"
2,0.124,"Cc1cc(Cn2c(=O)[nH]c3ncc(-c4cccc(C(F)(F)F)c4)cc32)no1 [Example 19, 1-[(5-Methylisoxazol-3-yl)methyl]-6-[3-(trifluoromethyl)phenyl]-3H-imidazo[4,5-b]pyridin-2-one]"
3,0.104,"Cc1cc(Cn2c(=O)n(C)c3ncc(-c4ccc(F)c(F)c4)cc32)no1 [Example 8, 6-(3,4-Difluorophenyl)-3-methyl-1-[(5-methylisoxazol-3-yl)methyl]imidazo[4,5-b]pyridin-2-one]"
4,0.097,"Cc1csc(-c2cnc3c(c2)n(Cc2cc(C)on2)c(=O)n3C)c1 [Example 14, 3-Methyl-1-[(5-methylisoxazol-3-yl)methyl]-6-(4-methyl-2-thienyl)imidazo[4,5-b]pyridin-2-one]"
5,0.088,"CCNC(=O)Cn1c(=O)[nH]c2ncc(-c3ccc(F)cc3C)cc21 [Example 3, N-Ethyl-2-[6-(4-fluoro-2-methyl-phenyl)-2-oxo-3H-imidazo[4,5-b]pyridin-1-yl]acetamide]"
6,0.088,"Cc1cc(Cn2c(=O)[nH]c3ncc(-c4ccccc4)cc32)no1 [Example 11, 1-[(5-Methylisoxazol-3-yl)methyl]-6-phenyl-3H-imidazo[4,5-b]pyridin-2-one]"
7,0.076,"Cc1nnc(Cn2c(=O)[nH]c3ncc(-c4ccc(F)cc4)cc32)o1 [Example 13, 6-(4-Fluorophenyl)-1-[(5-methyl-1,3,4-oxadiazol-2-yl)methyl]-3H-imidazo[4,5-b]pyridin-2-one]"
8,0.07,"O=C(Cn1c(=O)[nH]c2ncc(-c3cccc(C(F)(F)F)c3)cc21)N1CCC1 [Example 25, 1-[2-(Azetidin-1-yl)-2-oxo-ethyl]-6-[3-(trifluoromethyl)phenyl]-3H-imidazo[4,5-b]pyridin-2-one]"
9,0.048,"Cc1cc(-c2cnc3c(c2)n(Cc2ccccn2)c(=O)n3C)ccc1F [Example 6, 6-(4-Fluoro-3-methyl-phenyl)-3-methyl-1-(2-pyridylmethyl)imidazo[4,5-b]pyridin-2-one]"
10,0.029,"Cc1cc(Cn2c(=O)[nH]c3ncc(-c4ccc(F)cc4)cc32)no1 [Example 12, 6-(4-Fluorophenyl)-1-[(5-methylisoxazol-3-yl)methyl]-3H-imidazo[4,5-b]pyridin-2-one]"
11,0.012,"CN(C)C(=O)Cn1c(=O)[nH]c2ncc(-c3ccc(C(F)(F)F)s3)cc21 [Example 26, N,N-Dimethyl-2-[2-oxo-6-(5-(trifluoromethyl)-2-thienyl]-3H-imidazo[4,5-b]pyridin-1-yl)acetamide]"
12,0.011,"CCC(=O)Cn1c(=O)[nH]c2ncc(-c3ccc(F)c(C)c3F)cc21 [Example 30, 6-(2,4-Difluoro-3-methyl-phenyl)-1-(2-oxobutyl)-3H-imidazo[4,5-b]pyridin-2-one]"
13,0.01,"Cn1c(=O)n(CC(=O)N2CC(F)C2)c2cc(-c3ccc(C(F)F)s3)cnc21 [Example 10, 6-[5-(Difluoromethyl)-2-thienyl]-1-[2-(3-fluoroazetidin-1-yl)-2-oxo-ethyl]-3-methyl-imidazo[4,5-b]pyridin-2-one]"
14,0.005,"CN(C)C(=O)Cn1c(=O)n(C)c2ncc(-c3ccc(Cl)s3)cc21 [Example 9, 2-[6-(5-Chloro-2-thienyl)-3-methyl-2-oxo-imidazo[4,5-b]pyridin-1-yl]-N,N-dimethyl-acetamide]"
